From patent US20020150540A1, “Allergen neutralization compositions containing aluminum ions” (priority 2001, published 2002)

Columns and labels:
Der f 1 = target: T1, Der f 1 (Dermatophagoides farinae, UniProt P16311); test: ELISA efficacy determination protocol, allergen neutralization versus Der f 1; assay type: biochemical; conditions: for % of Allergen Neutralized: Versus Der f 1, 0.26 wt.% active ion in composition before sample preparation, pH 3.5, normalized to water control
T1 construct: Add 1.0 ml of 20 ug/ml Dermatophagoides farinae mite extract; from tissue; host or cells: Dermatophagoides farinae mite extract (crude)
T1 sequence (P16311 99-321): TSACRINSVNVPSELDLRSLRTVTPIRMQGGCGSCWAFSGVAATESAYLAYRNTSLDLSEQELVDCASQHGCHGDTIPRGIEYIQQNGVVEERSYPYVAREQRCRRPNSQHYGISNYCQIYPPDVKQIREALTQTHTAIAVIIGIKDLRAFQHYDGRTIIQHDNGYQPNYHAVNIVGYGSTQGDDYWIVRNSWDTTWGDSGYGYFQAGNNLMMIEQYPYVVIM
From the text: (§1) The efficacy of an allergen neutralization composition can be determined by the ELISA protocol. Enzyme-linked immunosorbent assay (“ELISA”) is a highly sensitive assay technique for detection and measurement of antigens or antibodies in solution. The assay uses enzyme-linked antigens or antibodies to amplify an antigen-antibody reaction. A single enzyme-linked antibody-antigen complex can convert orders of magnitude more of colorless substrate molecules into detectable colored products, thus considerably amplifying the original antigen-antibody reaction. The antigen or antibody is adsorbed onto the surface of the well of a microtiter plate, and all the relevant reactions take place in solution inside the well. While the following protocol will be easily understood by those skilled in the art, for a more detailed explanation please see Konishi, E. and Uehara, K. Enzyme-linked immunosorbent assay for quantifying antigens of Dermatophagoides farinae and D. pteronyssinus (Acari: Pyroglyphidae) in house dust samples, 1990, Entomologist Society of America, 27 (6), p. 993-998.
(§2) It is understood that those skilled in the art of allergen suppression will be aware of numerous variations to the protocol given below. For example, the monoclonal antibody may be substituted with a similar antibody, for example Der f 1 for Der f 2. But a standard, in this case water, is used and the results for the samples that contain active ingredients are normalized against the standard and the results reported as percentage of allergen remaining. That is, the amount of allergen that is not neutralized. Thus, the allergen neutralization results for similar, but not identical antibodies should be substantially the same when normalized to the standard. Both Der f 1 and Der f 2 were tested for various compositions. Der f 1 was chosen as the standard for the present Efficacy Determination Protocol.
(§3) At least two samples are prepared. One sample contains only distilled water and samples of one or more allergen neutralization compositions containing the allergen neutralization active, for example Al2(SO4)3, tannin, etc. The samples are all treated according to the same protocol, and the distilled water sample is used as the control. All samples are prepared as follows:
(§4) 1) Add 1.0 ml of 20 ug/ml Dermatophagoides farinae mite extract to 0.8 ml of the sample composition (either the allergen neutralization composition or water for the control). Mix well and let sit for 1 hour at room temp.
(§5) 2) Add 2.2 ml of 20% skim milk in Phosphate Buffer Saline (PBS).
(§6) 3) Mix well by vortexing and centrifuge at 12000 rpm (approx. 17000×g) for 1 hour.
(§7) 4) The supernatant is used for the ELISA protocol.
(§8) Each well of a microplate is coated at 4° C. overnight with 100 μl of Der f 2 monoclonal antibody (clone 15E11, from Asahi Breweries., AB-A-4) at a protein concentration of 2 μg per ml of Phosphate Buffer Saline (PBS), pH 7.4 containing 0.1% sodium azide. The monoclonal antibody is discarded and the plate is incubated with 100 μl of 1% BSA PBS containing 0.1% sodium azide for 1 hour. The plate is washed 3 times with PBS containing 0.05% Tween 20 (PBS-T). 100 μl of an allergen sample is added and incubated for 1 hour at 37° C.
(§9) Use 3×dilutions of a reference Dermatophagoides farinae crude extract (commercially available from LSL) to make the standard curve. The curve is made using 6.9 nanogram-mite extract equivalent/ml to 5 microgram-mite extract equivalent/ml. Wash plate with PBS-T for 3 times. 100 μl of Horse Radish Peroxidase (HRP) conjugated anti Der f 2 antibody (clone 13A4) is added at 40 ng/ml and the plate is incubated at 37° C. for 1 hour. The plate is then washed with PBS-T 3 times and then washed with water 3 times. The wells are incubated with 100 μl of o-phenylene diamine at 2.0 mg/ml of 0.1M phosphate buffer (pH 6.2) containing 0.03% H2O2. The enzyme reaction is terminated by adding 50 μl of 2 M H2SO4.
(§10) The absorbance of the sample is read at 490 nm with a cell length of 1 cm. […]

Der f 2 = target: T2, Der f 2 (Dermatophagoides farinae, UniProt Q00855); test: ELISA efficacy determination protocol, allergen neutralization versus Der f 2; assay type: biochemical; conditions: 0.26 wt.% active ion in composition before sample preparation, pH 3.5, normalized to water control
T2 construct: Add 1.0 ml of 20 ug/ml Dermatophagoides farinae mite extract; from tissue; host or cells: Dermatophagoides farinae mite extract (crude)
From the text: as §1, §2, §3, §4, §5, §6, §7, §8, §9, §10

T2 sequence (Q00855 18-146): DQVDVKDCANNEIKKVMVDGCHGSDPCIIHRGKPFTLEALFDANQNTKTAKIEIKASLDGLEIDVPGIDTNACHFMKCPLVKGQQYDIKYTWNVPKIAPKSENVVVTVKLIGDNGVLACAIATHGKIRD

Row | Molecule | % of Allergen Neutralized (Der f 1) [%] | % of Allergen Neutralized (Der f 2) [%] | performance at deactivating dust mite allergens (Der f 1; statement in words on Table I)
1 | CC(O)C(=O)[O][Al]([O]C(=O)C(C)O)[O]C(=O)C(C)O (stereo not shown) [Al Lactate, reference compound] | 30 | 17 | –
2 | aluminum chlorohydrate [Al(OH)Cl2, reference compound] | 59 | 3 | relatively poor performance
3 | [Cl][Al]([Cl])[Cl] [AlCl3] | 85 | 17 | –
4 | O=S(=O)([O-])[O-].O=S(=O)([O-])[O-].O=S(=O)([O-])[O-].[Al+3].[Al+3] [Al2(SO4)3] | 66 | 6 | –
5 | O=S(=O)([O-])[O-].O=S(=O)([O-])[O-].[Al+3].[K+] [AlK(SO4)2] | 65 | 23 | –
6 | O=[N+]([O-])[O-].O=[N+]([O-])[O-].O=[N+]([O-])[O-].[Al+3] [Al(NO3)3] | 93 | 50 | –
